Reference: patent US10359430B2, “Selective near-infrared optical imaging of necrotic cells and simultaneous cell fixing and counter staining with metallacrown complexes” (THE REGENTS OF THE UNIVERSITY OF MICHIGAN, priority 2015, dated 2019)
Entries after “also recorded” stand apart in the source; their conditions may differ.

Columns and labels:
[1] = test system: HeLa cells; test: Confocal microscopy of HeLa cells; type: cell-based, Human; conditions: 150 μM, 15 minutes, UV light (377 nm) 8 minutes, further 1 hour; λex 458 nm, λem 499-799 nm
Excerpt: Complexes were excited with Argon laser at 458 nm and emission signal was collected from 499 nm to 799 nm. During this experiment, a 63× Plan-Apochromat objective was used (2× zoom).

[2] = Photophysical parameters in OPTI-MEM media, cell supernatant and HeLa cells; type: physicochemical
Method: The Yb^3+[Zn(II)MCpyzHA] complexes were dissolved in OPTI-MEM® medium with 2% SVF (without cells) and were incorporated in HeLa cells, both with and without exposure to UV light. The results in are shown in FIG. 20, (A) (corrected and normalized excitation) and FIG. 20, (B) (corrected and normalized emission). […] The present inventors developed instrumentation in order to collect photophysical properties of MCs inside of cancer cells. They measured quantitative photophysical parameters (quantum yields and life times) inside of the cells with equipment which is usually adapted for measuring of (quantum yields and life times) in solids or in concentrated solutions.
The Yb^3+[Zn(II)MCpyzHA] complexes were collected together with cell supernatant (SN) and with HeLa cells treated with N-acetyl cysteine, both with and without exposure to UV light. For SN1 and cells1, incubation with NAC took place for 30 minutes, then the cells were washed, and incubation with Yb^3+[Zn(II)MCpyzHA] took place for 15 minutes. For SN2 and cells2, incubation with Yb^3+[Zn(II)MCpyzHA] took place for 15 minutes, and then NAC was added and incubation with NAC took place for 30 minutes. The results in are shown in FIGS. 20C (corrected and normalized excitation) and 20D (corrected and normalized emission). […]

[3] = Photophysical properties of the metallacrowns in solid state and in aqueous solutions; type: physicochemical
Method: FIG. 4. illustrates the normalized excitation (λem(Nd^3+)=1070 nm, λem(Yb^3+)=980 nm) and emission (λex=370 nm) spectra of Yb^3+[Zn(II)MCpyzHA], at the top, and Nd^3+[Zn(II)MCpyzHA] MCs, at the bottom, (solid or 200 μM solutions, room temperature).

[4] = test system: HeLa cells; test: NIR epifluorescence microscopy of HeLa cells treated with N-acetyl cysteine; type: cell-based, Human; conditions: 150 μM complex 15 minutes
Method: Formation of extracellular vesicules is a result of cellular response on oxidative stress which indicates excessive production of ROS (Reactive oxygen species). In order to investigate if ROS are responsible for dual function of Yb^3+[Zn(II)MCpyzHA], HeLa cancer cells were treated with NAC (N-acetyl cysteine), which is a well known antioxidant that efficiently blocks production of reactive oxygen species (ROS).
Cells were seeded in a 8-well Lab Tek Chamber coverglass (Nunc, Dutsher S.A., Brumath, France) at a density of 6×10^4 cells/well and cultured at 37° C. in 5% humidified CO2 atmosphere.
After 24 hours, the cell culture media was removed. Some of the cells were washed twice with OPTI-MEM® media (room temperature), incubated with N-acetyl cysteine (NAC) for 15 minutes, washed twice with OPTI-MEM® media and incubated with 150 μM of Yb^3+[Zn(II)MCpyzHA] for 15 minutes.
After 24 hours, the cell culture media was removed. Some of the cells were washed twice with OPTI-MEM® media (room temperature), and incubated with 150 μM of Yb^3+[Zn(II)MCpyzHA] for 15 minutes. N-acetyl cysteine (NAC) was added, and the cells were incubated for another 30 minutes. The cells were washed twice with OPTI-MEM® media.

[5] = No UV NAC (SN1*): cell supernatant, NAC 30 minutes, washed, then complex 15 minutes
[6] = No UV NAC (SN2*): cell supernatant, complex 15 minutes, then NAC 30 minutes
[7] = No UV NAC (in cells1*): NAC 30 minutes, washed, then complex 15 minutes
[8] = No UV NAC (in cells2*): complex 15 minutes, then NAC 30 minutes
[9] = No UV: After 5 h of incubation with HeLa cells without illumination
[10] = UV NAC (SN2*): cell supernatant, complex 15 minutes, then NAC 30 minutes
[11] = UV NAC (in cells2*): complex 15 minutes, then NAC 30 minutes
[12] = UV: After 5 h of incubation with HeLa cells with UV illumination (during 8 min)

- Quantum yield ([2]; In HeLa cells): 2.14(6) · 10^−2%
- τ2 ([2]; In HeLa cells): 23.6(7) μs
- τ2 contribution ([2]; In HeLa cells): 100%
- Quantum yield [2, 5]: 1.08(1) · 10^−2%
- τ1 [2, 5]: 7.27(2) μs
- τ1 contribution [2, 5]: 91%
- τ2 [2, 5]: 50(2) μs
- τ2 contribution [2, 5]: 9%
- Quantum yield [2, 6]: 1.00(4) · 10^−2%
- τ1 [2, 6]: 6.72(3) μs
- τ1 contribution [2, 6]: 88%
- τ2 [2, 6]: 28.4(1) μs
- τ2 contribution [2, 6]: 12%
- τ1 [2, 7]: 7.5(4) μs
- τ1 contribution [2, 7]: 6%
- τ2 [2, 7]: 22.9(1) μs
- τ2 contribution [2, 7]: 94%
- τ1 [2, 8]: 7.3(1) μs
- τ1 contribution [2, 8]: 7%
- τ2 [2, 8]: 23.6(2) μs
- τ2 contribution [2, 8]: 93%
- Quantum yield [2, 9]: 1.52(3) · 10^−2%
- τ1 [2, 9]: 6.47(4) μs
- τ1 contribution [2, 9]: 75%
- τ2 [2, 9]: 21.6(8) μs
- τ2 contribution [2, 9]: 25%
- Quantum yield ([2]; OptiMEM): 1.25(1) · 10^−2%
- τ1 ([2]; OptiMEM): 6.45(5) μs
- τ1 contribution ([2]; OptiMEM): 89%
- τ2 ([2]; OptiMEM): 24(1) μs
- τ2 contribution ([2]; OptiMEM): 11%
- Quantum yield ([2]; OptiMEM-UV 1 h 30 min): 2.05(5) · 10^−2%
- τ1 ([2]; OptiMEM-UV 1 h 30 min): 7.03(3) μs
- τ1 contribution ([2]; OptiMEM-UV 1 h 30 min): 61%
- τ2 ([2]; OptiMEM-UV 1 h 30 min): 21.5(1) μs
- τ2 contribution ([2]; OptiMEM-UV 1 h 30 min): 39%
- Quantum yield [2, 10]: 1.06(5) · 10^−2%
- τ1 [2, 10]: 6.80(9) μs
- τ1 contribution [2, 10]: 75%
- τ2 [2, 10]: 23(1) μs
- τ2 contribution [2, 10]: 25%
- τ1 [2, 11]: 8.7(5) μs
- τ1 contribution [2, 11]: 9%
- τ2 [2, 11]: 23.2(1) μs
- τ2 contribution [2, 11]: 91%
- Quantum yield [2, 12]: 1.64(5) · 10^−2%
- τ1 [2, 12]: 6.51(8) μs
- τ1 contribution [2, 12]: 65%
- τ2 [2, 12]: 21(1) μs
- τ2 contribution [2, 12]: 35%
- Contribution of the long lifetime inside of HeLa cells ([2]; all experimental conditions): more than 90%
- Q (quantum yield), D2O ([3]; 200 μM in D2O, room temperature, excitation at 370 nm): 0.257(3) %
- Q (quantum yield), H2O ([3]; 200 μM in H2O, room temperature, excitation at 370 nm): 1.12(7) · 10^−2%
- Excitation wavelength limit ([3]; FIG. 4 (Top), excitation spectrum): up to 480 nm
- Q (quantum yield), Solid ([3]; solid state, room temperature, excitation at 370 nm): 0.659(4) %
Compound: O=C([N-][O-])c1cnccn1.O=C([N-][O-])c1cnccn1.O=C([N-][O-])c1cnccn1.O=C([N-][O-])c1cnccn1.O=C([N-][O-])c1cnccn1.O=C([N-][O-])c1cnccn1.O=C([N-][O-])c1cnccn1.O=C([N-][O-])c1cnccn1.O=C([N-][O-])c1cnccn1.O=C([N-][O-])c1cnccn1.O=C([N-][O-])c1cnccn1.O=C([N-][O-])c1cnccn1.O=C([N-][O-])c1cnccn1.O=C([N-][O-])c1cnccn1.O=C([N-][O-])c1cnccn1.O=C([N-][O-])c1cnccn1.O=S(=O)([O-])C(F)(F)F.O=S(=O)([O-])C(F)(F)F.O=S(=O)([O-])C(F)(F)F.[Yb+3].[Zn+2].[Zn+2].[Zn+2].[Zn+2].[Zn+2].[Zn+2].[Zn+2].[Zn+2].[Zn+2].[Zn+2].[Zn+2].[Zn+2].[Zn+2].[Zn+2].[Zn+2].[Zn+2].c1ccncc1.c1ccncc1.c1ccncc1.c1ccncc1.c1ccncc1.c1ccncc1.c1ccncc1.c1ccncc1 [Yb^3+[Zn(II)MCpyzHA]]
- Intracellular location (confocal, visible ligand emission) [1]: specifically located in nucleus as well as in cytoplasm
- Integrity of the MC ([2]; cell culture media and cells, different experimental conditions): stays intact in cell culture media and in the cells
- Change of luminescent properties in media, cell supernatant or HeLa cells ([2]; with/without exposure to UV light): did not change in the cells; also recorded: did not change in cell supernatant or inside of the HeLa cells
- Internalization inside the cells, complex Incubation First ([4]; then NAC 30 minutes): do not show internalization
- NIR signal in cells, NAC Incubation First ([4]; NAC 15 minutes, wash, exposure time 400 ms): very good signal in NIR
